Data reported in ChEMBL document CHEMBL1212705, “Gene expression signatures and small-molecule compounds link a protein kinase to Plasmodium falciparum motility” (Nat Chem Biol, 2008).

Assays:
[1] = Inhibition of GST-fused Plasmodium falciparum recombinant CDPK1 expressed in Escherichia coli Rosetta 2 assessed as inhibition of [gamma-33P]ATP incorporation into substrate peptide by scintillation counting
[2] = tested on: Plasmodium falciparum; assay: Antiplasmodial activity against Plasmodium falciparum 3D7 after 72 hrs by SYBR green assay; assay type: functional, organism-based; conditions: 3D7, 72 h
[3] = tested on: Plasmodium falciparum; assay: Antiplasmodial activity against Plasmodium falciparum 3D7 by [3H]hypoxanthine incorporation assay; conditions: 3D7, 3 h

| Compound | IC50 [1] [nM] | EC50 [2] [nM] | EC50 [3] [nM] |
| --- | --- | --- | --- |
| N[C@H]1CC[C@H](Nc2nc(Nc3ccc(C(=O)N4CCCCC4)cc3)c3ncn(-c4cccc(OCc5ccccc5)c4)c3n2)CC1 | 4040 | 312 | – |
| O=C(c1ccc(Nc2nc(N[C@H]3CC[C@H](O)CC3)nc3c2ncn3-c2cccc(F)c2)cc1)N1CCCCC1 | 150 | > 10000 | – |
| CCN(CC)CCCC(C)Nc1ccnc2cc(Cl)ccc12 (configuration not stated) [CHLOROQUINE] | – | – | < 10 |
| CN1CCN(C(=O)c2cccc(Nc3nc(N[C@H]4CC[C@H](N)CC4)nc4c3ncn4-c3ccccc3)c2)CC1 | 6870 | 1300 | – |
| O=C(c1ccc(Nc2nc(Nc3cnc4ccccc4c3)nc3c2ncn3-c2ccccc2)cc1)N1CCCCC1 | 3850 | 101 | – |
| O=C(c1ccc(Nc2nc(NCCCN3CCOCC3)nc3c2ncn3-c2ccccc2)cc1)N1CCCCC1 | 430 | 2990 | – |
| N[C@H]1CC[C@H](Nc2nc(Nc3ccc(C(=O)N4CCCCC4)cc3)c3ncn(-c4ccc(C(=O)O)cc4)c3n2)CC1 | 28 | > 10000 | – |
| CC(C)(C)c1ccc(-n2cnc3c(Nc4ccc(C(=O)N5CCCCC5)cc4)nc(N[C@H]4CC[C@H](N)CC4)nc32)cc1 | 3490 | 596 | – |
| N[C@H]1CC[C@H](Nc2nc(Nc3ccc(CN4CCOCC4)cc3)c3ncn(-c4ccccc4)c3n2)CC1 | 703 | 174 | – |
| N[C@H]1CC[C@H](Nc2nc(Nc3ccc(C(=O)N4CCCCC4)cc3)c3ncn(-c4cccc(C(=O)O)c4)c3n2)CC1 | 71 | > 10000 | – |
| N[C@H]1CC[C@H](Nc2nc(Nc3ccc(C(=O)N4CCCCC4)cc3)c3ncn(-c4ccc5c(c4)OCO5)c3n2)CC1 | 342 | 400 | – |
| CCOc1ccc(-n2cnc3c(Nc4ccc(C(=O)N5CCCCC5)cc4)nc(N[C@H]4CC[C@H](N)CC4)nc32)cc1 | 240 | 535 | – |
| O=C(c1ccc(Nc2nc(NCCc3c[nH]cn3)nc3c2ncn3-c2cccc(Cl)c2)cc1)N1CCCCC1 | 626 | 352 | – |
| C[C@@H]1CC[C@H]2[C@@H](C)C(=O)O[C@@H]3O[C@@]4(C)CC[C@@H]1[C@]32OO4 [ARTEMISININ] | – | 28 | < 10 |
